Experimental data reported in patent US8288404B2, “Pyrrolidine GPR40 modulators” (Bristol-Myers Squibb Company, priority 2009, dated 2012).
Where a name gives a salt, the structure may show the parent alone.

Biological target: T1, hGPR40 (Homo sapiens, UniProt O14842)
T1 construct: 3xFLAG; expressed in transfected cells
Test: FDSS-Based Intracellular Calcium Assay (Human GRP40 In Vitro assay)
Details: cell lines expressing GPR40, intracellular Ca2+ response, FDSS reader
Procedure: FDSS-Based Intracellular Calcium Assay
Cell lines expressing GPR40 are generated using the pDEST 3xflag gene expression system and are cultured in culture medium comprising the following components: F12 (Gibco #11765), 10% lipid deprived fetal bovine serum, 250 ug/ml zeocin and 500 ug/ml G418. To conduct the fluorescent imaging plate reader (FLIPR)-based calcium flux assay to measure intracellular Ca^2+ response, cells expressing GPR40 are plated on 384 well plates (BD Biocoat #356697) at a density of 20,000 cells/20 ul medium per well in phenol red and serum-free DMEM (Gibco #21063-029) and incubated overnight. Using BD kit #s 80500-310 or -301, the cells are incubated with 20 ul per well of Hank's buffered salt solution with 1.7 mM probenecid and Fluo-3 at 37° C. for 30 minutes. Compounds are dissolved in DMSO and diluted to desired concentrations with assay buffer and added to the cells as 3× solution (20 ul per well). Run fluorescence/luminescence reader FDSS (Hamamatsu) to read intracellular Ca^2+ response.
Table 1 below lists hGPR40 EC50 values measured for the following examples.

T1 sequence (O14842 whole entry): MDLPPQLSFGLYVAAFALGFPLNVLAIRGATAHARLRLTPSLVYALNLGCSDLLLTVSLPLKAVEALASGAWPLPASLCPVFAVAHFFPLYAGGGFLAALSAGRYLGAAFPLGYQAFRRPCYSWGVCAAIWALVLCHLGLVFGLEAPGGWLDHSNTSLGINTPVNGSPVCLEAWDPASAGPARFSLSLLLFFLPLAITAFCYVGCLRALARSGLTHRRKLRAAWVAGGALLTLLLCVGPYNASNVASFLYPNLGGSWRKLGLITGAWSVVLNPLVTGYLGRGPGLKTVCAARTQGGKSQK

Row | Compound | EC50
1 | Cc1cccc(C)c1Oc1ccc(N2CCC[C@@H]2CC(=O)O)cc1 [Example 4, (R)-2-(1-(4-(2,6-dimethylphenoxy)phenyl)pyrrolidin-2-yl)acetic acid, HCl] | 3800 nM
2 | O=C(O)C[C@@H]1CCCN1c1ccc(Cc2ccc(OCc3ccccc3)cc2)cc1 [Example 58, (S)-2-(1-(4-(4-(benzyloxy)benzyl)phenyl)pyrrolidin-2-yl)acetic acid, TFA] | 331 nM
3 | Cc1ccccc1Sc1ccc(N2CCC[C@H]2CC(=O)O)cc1 [Example 44, (S)-2-(1-(4-(o-tolylthio)phenyl)pyrrolidin-2-yl)acetic acid, TFA] | 352 nM
4 | CO[C@H]1C[C@@H](CC(=O)O)N(c2ccc(Oc3ccccc3C)cc2)C1 [Example 56, 2-((2S,4S)-4-methoxy-1-(4-(o-tolyloxy)phenyl)pyrrolidin-2-yl)acetic acid, TFA] | 2320 nM
5 | COc1ccc(F)c(-c2cccc(Oc3ccc(N4CCC[C@H]4CC(=O)O)cc3)c2C)c1 [Example 68, 2-((2S)-1-(4-(2′-fluoro-5′-methoxy-2-methylbiphenyl-3-yloxy)phenyl)pyrrolidin-2-yl)acetic acid, TFA] | 314 nM
6 | Cc1ccccc1COc1cc(N2CCC[C@H]2CC(=O)O)ccn1 [Example 76, (S)-2-(1-(2-(2-methylbenzyloxy)pyridin-4-yl)pyrrolidin-2-yl)acetic acid, TFA] | 4390 nM
7 | Cc1ccccc1Oc1ccc(N2CCC[C@H]2CC(=O)O)cc1F [Example 1, (S)-2-(1-(3-fluoro-4-(o-tolyloxy)phenyl)pyrrolidin-2-yl)acetic acid, TFA] | 1630 nM
8 | Cc1ccc(COc2ccc(N3CCC[C@@H]3CC(=O)O)cc2)cc1 [Example 109] | 4340 nM
9 | Cc1ccccc1Oc1ccc(N2CCC[C@H]2CC(=O)O)cc1 [Example 5, (S)-2-(1-(4-(o-tolyloxy)phenyl)pyrrolidin-2-yl)acetic acid, HCl] | 65 nM

The next lines start with the values.

Row | EC50 | Compound
10 | 305 nM | O=C(O)C[C@@H]1C[C@H](C(F)(F)F)CN1c1ccc(Oc2ccccc2C(F)(F)F)cc1 [Example 52, 2-((2S,4S)-4-(trifluoromethyl)-1-(4-(2-(trifluoromethyl)phenoxy)phenyl)pyrrolidin-2-yl)acetic acid, TFA]
11 | 55 nM | COc1ccc(Oc2ccc(N3C[C@@H](C(F)(F)F)C[C@H]3CC(=O)O)cc2)c(C)c1 [Example 50, 2-((2S,4S)-1-(4-(4-methoxy-2-methylphenoxy)phenyl)-4-(trifluoromethyl)pyrrolidin-2-yl)acetic acid, TFA]
12 | 61 nM | Cc1ccccc1Cc1ccc(N2C[C@@H](C(F)(F)F)C[C@H]2CC(=O)O)cc1 [Example 40, 2-((2S,4S)-1-(4-(2-methylbenzyl)phenyl)-4-(trifluoromethyl)pyrrolidin-2-yl)acetic acid, TFA]
13 | 56 nM | Cc1ccccc1Oc1ccc(N2C[C@@H](C(F)(F)F)C[C@H]2CC(=O)O)cc1 [Example 41, 2-((2S,4S)-1-(4-(o-tolyloxy)phenyl)-4-(trifluoromethyl)pyrrolidin-2-yl)acetic acid, TFA]
